Source: patent US4855316A (priority 1988, dated 1989)

Columns and labels:
[1] = standard rat paw pressure analgesia test; type: in vivo; details: i.v.
Excerpt: The ED50 doses for several representative compounds of this invention in the standard rat paw pressure analgesia test are presented in Table 1.

[2] = biological target: T1, mu opioid receptor (Cavia porcellus, UniProt A0ACM8Q262); test: mu opioid receptor binding: tritiated DAGO in guinea pig brain homogenates; details: read-out: Opoid Binding Mu Ki; guinea pig brain homogenate, [3H]DAGO, 150 minutes, 0° C.
T1 construct: full-length wild-type receptor
T1 sequence (A0ACM8Q262 1-400): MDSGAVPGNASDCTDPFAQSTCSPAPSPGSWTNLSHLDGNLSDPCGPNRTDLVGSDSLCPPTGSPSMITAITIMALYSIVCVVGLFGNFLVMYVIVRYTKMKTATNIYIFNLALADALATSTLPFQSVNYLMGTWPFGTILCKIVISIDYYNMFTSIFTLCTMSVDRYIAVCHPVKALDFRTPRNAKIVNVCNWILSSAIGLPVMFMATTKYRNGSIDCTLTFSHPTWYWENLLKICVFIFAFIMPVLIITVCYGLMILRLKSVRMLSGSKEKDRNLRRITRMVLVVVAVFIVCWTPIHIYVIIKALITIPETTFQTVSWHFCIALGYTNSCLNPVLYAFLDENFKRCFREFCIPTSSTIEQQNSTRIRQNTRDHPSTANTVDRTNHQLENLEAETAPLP

SMILES	Rat Paw Pressure MPE50 [1] [mg·kg]	Ki [2] [nM]
CO[C@H]1C[C@@H](N2CCCC2)[C@H](N(C)C(=O)COc2cc(C)c(Cl)c(C)c2)C[C@H]1OC (relative stereo) [Compound 3]	> 10	720
CO[C@H]1C[C@@H](N2CCCC2)[C@H](N(C)C(=O)COc2cc(C)c(Cl)c(C)c2Cl)C[C@H]1OC (relative stereo) [Compound 8]		700
CO[C@H]1C[C@@H](N2CCCC2)[C@H](N(C)C(=O)Cc2ccc(Cl)c(Cl)c2)C[C@H]1OC (relative stereo) [Compound 6]	5.2	
CO[C@H]1C[C@@H](N2CCCC2)[C@H](N(C)C(=O)CC2c3ccccc3-c3ccccc32)C[C@H]1OC (relative stereo) [Compound 7]		273
CO[C@H]1C[C@@H](N2CCCC2)[C@H](N(C)C(=O)Cc2cccc3ccccc23)C[C@H]1OC (relative stereo) [Compound 5]	1.7	
CO[C@H]1C[C@@H](N2CCCC2)[C@H](N(C)C(=O)COc2ccc(Cl)c(Cl)c2)C[C@H]1OC (relative stereo) [Compound 4]	> 10	1100
CO[C@H]1C[C@@H](N2CCCC2)[C@H](N(C)C(=O)COc2cccc(F)c2)C[C@H]1OC (relative stereo) [Compound 9, N-[4,5-Dimethoxy-2-(1-pyrrolidinyl)cyclohexyl]-2-(3-fluorophenoxy)-N-methylacetamide]		1100
